Experimental data reported in publication PMC4594923, “Food Polyphenols Fail to Cause a Biologically Relevant Reduction of COX-2 Activity” (PLoS ONE, 2015).
Entries after “also recorded” stand apart in the source; their conditions may differ. Marks after values point to notes of the source that are not given here.

Columns and labels:
[1] = tested on: arachidonic acid (AA) cascade; test: kidney tissue oxylipin/PG levels in LPS induced sepsis in mice;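 note: male C57BL/6N mice challenged with LPS, kidney taken 24 h later, oxylipins quantified by LC-MS after solid-phase extraction of tissue homogenate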
From the text: (§1) Twelve week old male C57BL/6N mice (Charles River, Sulzfeld, Germany) were used for all experiments. C57BL/6 male mice (H2^b, 11–13 weeks of age) were obtained from Charles River (Sulzfeld, Germany). Animals were cared for in accordance with the institution’s guidelines for experimental animals and with the guidelines of the American Physiological Society. […] Mice were monitored closely and if they appeared compromised (i.e. inactivity, no intake of food or water) after compound or LPS injection the experiment was terminated.
(§2) Oxylipin levels were analyzed in plasma and tissues by LC-MS following SPE extraction of 200 μl plasma or tissue homogenate (50 mg) on Chromabond C18 ec cartridges (Machery-Nagel, Düren, Germany) [19].
(§3) GraphPad Prism 5.0 (GraphPad Software, San Diego, USA) was used for data analysis, the fitting of dose response curves and calculation of the IC50 values. Statistical differences were determined by Dunnetts test (LPS vs. other groups).

[2] = tested on: arachidonic acid (AA) cascade; test: plasma oxylipin/PG levels in LPS induced sepsis in mice;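 for all read-outs here: male C57BL/6N mice given LPS, plasma oxylipins quantified by LC-MS after solid-phase extraction, pretreatment or vehicle given intraperitoneally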; type: in vivo, C57BL/6N mice; details: mice, 24 h after LPS, vs. LPS group; for plasma PGE2 level: compound i. p. 100 mg/kg bw 2 h before LPS (10 mg/kg bw i. p.)
From the text: as §1, §2, §3

[3] = biological target: T1, ovine recombinant COX–1 (Ovis aries, UniProt P05979); test: cell-free COX–1 enzyme assay (PGE2 formation, LC-MS); type: biochemical; set-up: purchased Cayman Chemicals/ Biomol, Hamburg, Germany
T1 sequence (P05979 25-600): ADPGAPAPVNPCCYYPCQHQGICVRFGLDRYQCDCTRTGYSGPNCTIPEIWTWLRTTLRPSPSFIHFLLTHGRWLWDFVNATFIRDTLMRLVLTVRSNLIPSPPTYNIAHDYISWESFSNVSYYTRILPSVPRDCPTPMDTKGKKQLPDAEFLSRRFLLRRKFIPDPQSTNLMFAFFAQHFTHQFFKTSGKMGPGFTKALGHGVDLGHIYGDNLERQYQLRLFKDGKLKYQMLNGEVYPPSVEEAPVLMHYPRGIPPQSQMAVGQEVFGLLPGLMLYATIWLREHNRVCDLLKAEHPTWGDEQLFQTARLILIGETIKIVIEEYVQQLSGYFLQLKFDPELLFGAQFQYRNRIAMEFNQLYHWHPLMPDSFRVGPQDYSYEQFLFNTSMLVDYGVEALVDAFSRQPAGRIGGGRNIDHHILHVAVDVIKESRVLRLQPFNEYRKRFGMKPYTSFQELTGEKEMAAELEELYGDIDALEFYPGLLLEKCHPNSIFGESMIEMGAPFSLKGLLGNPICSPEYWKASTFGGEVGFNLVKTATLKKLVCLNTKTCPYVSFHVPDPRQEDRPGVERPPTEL

[4] = tested on: COX–2; details: different murine colitis models; cited from earlier work
[5] = biological target: T1, ovine recombinant COX–1; details: based on PGE2 formation, n=3, same assay conditions; cited from earlier work
[6] = tested on: COX–2 protein; details: Western Blot, same assay conditions; cited from earlier work
[7] = tested on: COX–2 protein; details: Western Blot, same assay conditions; cited from earlier work; remark: listed apart in the source
[8] = kidney tissue 24 h after LPS treatment, LPS +, mean
[9] = kidney tissue 24 h after LPS treatment, LPS +, mean, < = below LOQ
[10] = mice, compound i. p. 100 mg/kg bw 2 h before LPS, 24 h after LPS, vs. LPS group

## Oc1ccc(/C=C/c2cc(O)cc(O)c2)cc1 [Resveratrol, resveratrol]
[1]; [8]
  1a,1b-dihomo-PGF2α: 3.9^‡ nM
  4,5-DiHDPE: 15 nM
  4-HDHA: 16 nM
  5(6)-EpETrE: 66 nM
  5,6-DiHETrE: 1.5 nM
  5-HEPE: 1.1 nM
  5-HETE: 12 nM
  5-oxo-ETE: 17 nM
  6-keto-PGF1α: 80^* nM
  7,8-DiHDPE: 1.7 nM
  7-HDHA: 2.7 nM
  8(9)-EpETrE: 15 nM
  8,9-DiHETrE: 1.6 nM
  8-HDHA: 16 nM
  8-HETE: 4.2 nM
  8-iPF2a: 3.2^‡ nM
  9(10)-EpODE: 8.2 nM
  9(10)-EpOME: 81 nM
  9(10)-Epoxystearic acid: 40 nM
  9,10,13-TriHOME: 7.4 nM
  9,10-DiHODE: 1.3 nM
  9,10-DiHOME: 22 nM
  9,10-Dihydroxystearic acid: 60 nM
  9,12,13-TriHOME: 45 nM
  9-HETE: 3.1 nM
  9-HODE: 350^* nM
  9-HOTrE: 3.9 nM
  9-oxo-ODE: 43 nM
  10(11)-EpDPE: 30 nM
  10,11-DiHDPE: 2.3 nM
  10-HDHA: 3.5 nM
  11(12)-EpETE: 1.5 nM
  11(12)-EpETrE: 35 nM
  11,12-DiHETrE: 2.6 nM
  11-HDHA: 4.9 nM
  11-HETE: 31^‡ nM
  12(13)-EpODE: 3.4 nM
  12(13)-EpOME: 59 nM
  12,13-DiHOME: 48 nM
  12-HEPE: 2.1 nM
  12-HETE: 24 nM
  13(14)-EpDPE: 24 nM
  13,14-DiHDPE: 3.2 nM
  13,14-dihydro-15-keto-PGF2α: 4.3^‡ nM
  13-HDHA: 11^‡ nM
  13-HODE: 270 nM
  13-HOTrE: 3.6 nM
  13-oxo-ODE: 6.1 nM
  14(15)-EpETE: 1.7 nM
  14(15)-EpETrE: 28 nM
  14,15-DiHETE: 0.62 nM
  14,15-DiHETrE: 7.1 nM
  14-HDHA: 12 nM
  15(16)-EpODE: 24 nM
  15(S)-HETrE: 7.4^‡ nM
  15,16-DiHODE: 20 nM
  15-HETE: 38^‡ nM
  15-oxo-ETE: 7.5 nM
  16(17)-EpDPE: 23 nM
  16,17-DiHDPE: 8.5 nM
  16-HDHA: 6.9 nM
  17(18)-EpETE: 2.5 nM
  17,18-DiHETE: 2.6^* nM
  17-HDHA: 17 nM
  18-HEPE: 1.3 nM
  19(20)-EpDPE: 43 nM
  19,20-DiHDPE: 68 nM
  20-HDHA: 19 nM
  20-HEPE: 5.3 nM
  EKODE: 45 nM
  PGD2: 20^† nM
  PGE1: 11^† nM
  PGE2: 210^‡ nM
  PGF1α: 6.2^† nM
  PGF2α: 70^‡ nM
  TXB2: 3.8^† nM
[1]; [9]
  5,6-DiHETE: < 0.25 nM
  5-iPF2α: < 1.0 nM
  8(9)-EpETE: < 1.0 nM
  12,13-DiHODE: < 2.0 nM
  13,14-dihydro-15-keto-PGE1: 0.6 nM
  20-HETE: < 2.7 nM
  PGD1: 0.72 nM
[1]; kidney tissue 24 h after LPS treatment, LPS +, mean, second listing of PGF2α (r9)
  PGF2α: 70 nM
[1]; [10]
  kidney 6-keto-PGF1α level: increased
  kidney 8-iPGF2α level: increased
  kidney 13,14-dihydro-15-keto-PGE1 level: increased
  kidney PGE2 level: increased
  kidney PGF2α level: increased
[2]
  plasma PGE2 level: increased
[2]; listed as resveratrol
  plasma PGE2 level: elevated
[2]; compound i. p. 100 mg/kg bw 2 h before LPS
  sum of linoleic acid (LA) derived epoxy-metabolites in plasma: decrease
[3]
  IC50: 490 nM
  effect on COX–1 dependent PGE2 formation, cell-free enzyme assay: dose-dependently decreased; also recorded: inhibited
[4]
  COX–2 expression and PGE2 production: reduced COX–2 expression and PGE2 production

## C[C@@H]1C[C@H]2[C@@H]3CCC4=CC(=O)C=C[C@]4(C)[C@@]3(F)[C@@H](O)C[C@]2(C)[C@@]1(O)C(=O)CO [dexamethasone]
[5]
  IC50 (95% CI), cell-free – COX-1: no effect (up to 100 µM)
[6]
  COX-2 Expression, primary monocytes: 1 µM - 3 nM: COX-2 ↓
[7]
  COX-2 Expression, HCA-7: no effect (up to 100 µM)
